Patent US20150111750A1, “Substituted N-(tetrazol-5-yl)- and N-(triazol-5-yl)hetarylcarboxamide compounds and their use as herbicides” (BASF SE, priority 2012, published 2015)

Key:
[1] = tested on: Amaranthus retroflexus; assay: Greenhouse post-emergence treatment of Amaranthus retroflexus; format: in vivo; conditions: application rate 1000 g/ha, scale 0 (no damage) to 100 (complete destruction)
Source text: (§1) The seeds of the test plants were sown separately for each species. For the post-emergence treatment, the test plants were first grown to a height of 3 to 15 cm, depending on the plant habit, and only then treated with the active ingredients which had been suspended or emulsified in water. For this purpose, the test plants were either sown directly and grown in the same containers, or they were first grown separately as seedlings and transplanted into the test containers a few days prior to treatment. Depending on the species, the plants were kept at 10-25° C. or 20-35° C. The test period extended over 2 to 4 weeks. During this time, the plants were tended, and their response to the individual treatments was evaluated. Evaluation was carried out using a scale from 0 to 100. 100 means no emergence of the plants, or complete destruction of at least the aerial moieties, and 0 means no damage, or normal course of growth. A good herbicidal activity is given at values of at least 70 and a very good herbicidal activity is given at values of at least 85. The plants used in the greenhouse experiments belonged to the following species: [table]

[2] = tested on: Echinochloa crus-galli; assay: Greenhouse post-emergence treatment of Echinochloa crus-galli; format: in vivo; conditions: application rate 1000 g/ha, scale 0 (no damage) to 100 (complete destruction)
Source text: as §1

Cn1ncnc1NC(=O)c1cnc(Cl)cc1Cl [I.5-1, 4,6-dichloro-N-(2-methyl-1,2,4-triazol-3-yl)pyridine-3-carboxamide]
damage [%] [1]: 65%
damage [%] [2]: 30%
